The source of these data is publication PMC11521691, “Elucidating the antimicrobial and anticarcinogenic potential of methanolic and water extracts of edible Tragopogon coelesyriacus Boiss” (Food Science & Nutrition, 2024).

In test [1] the test system is AR42J (pancreatic cancer) cells. Description: MTT cytotoxicity assay. The test is classed as cell-based, human. How it is done: (§1) This study included three epithelial cancerous (AR42J, pancreatic cancer; HeLa, cervical cancer, and MDA‐MB‐231 breast cancer) and two noncancerous epithelial human cells (ARPE‐19, retina; and MCF10A, breast). AR42J (ECACC, Cat No. 93100618) and MDA‐MB‐231 (ATCC, Cat No. HTB‐26) cells were cultured in RPMI media. HeLa cells (ATCC, Cat No. CCl‐2) were cultured in EMEM media. ARPE‐19 (ATCC, Cat No. CRL‐2302) and MCF10A (ATCC, Cat No. CRL‐10317) cells were cultured in DMEM. Each medium consisted of penicillin–streptomycin (1%) and fetal bovine serum (10%). Cells were cultured in a 37°C incubator with 5% CO2 humidification. Cells were cultured in 96‐well plates as 10.000 cells per well. After they reached at 80% confluency, cells were treated with extracts. For this, experiments for each cell included two groups, (1) treated with T. coelesyriacus extracts obtained by methanol for 24 h, 48 h, and 72 h at 3.125, 6.25, 12.5, 25, […], 100, and 200 μg/mL, and (2) treated with T. coelesyriacus extracts obtained by water for 24 h, 48 h, and 72 h at 3.125, 6.25, 12.5, 25, […], 100, and 200 μg/mL. Control wells for each cell were untreated (0 μg/mL). Positive control experiments were performed with cisplatin at the same concentrations with extracts (3.125–100 μg/mL) for 24 h, 48 h, and 72 h. For each dose at each concentration, at least three wells were used as intra‐experimental repeats. The whole experiments for each cell were repeated as two to three independent replications.
(§2) After treatment with different extracts (at 3.125, 6.25, 12.5, 25, 50, 100, and 200 μg/mL for 24 h, 48 h, and 72 h), media with extracts were removed, and the MTT protocol was applied as before (Cakmak et al., [2021]). MTT was also applied after cisplatin treatment for 24 h, 48 h, and 72 h. The concentrations of cisplatin used were 3.125, 6.25, 12.5, 25, 50, and 100 μg/mL. In this method, 200 μL of media, including 10 μL MTT (3‐(4,5‐dimethylthiazol‐2‐yl)‐2,5‐diphenyltetrazolium bromide), was added to each well and incubated at 37°C for 2.5 h. After incubation, media with MTT were removed, and 150 μL of DMSO was added to each well for dissolving formazan crystals. Subsequently, plates were incubated in the dark on a shaker for 1 h. Absorbances at 570 nm were read. Cell viabilities (as percentages) were calculated according to the viability of untreated cells considered as 100%. If applicable, IC50 values were calculated as before (Uzuner et al., [2021]).
A general note: Tetrazolium dyes change colour on reduction, which living cells bring about.

Test [2] has as its system ARPE‐19 (retinal epithelial) cells. Description: MTT cytotoxicity assay. The test is classed as cell-based, human. The conditions noted are these: ARPE19 normal cells. How it is done:
as §1, §2

Test [3] concerns HeLa (cervical cancer) cells. Description: MTT cytotoxicity assay. The test is classed as cell-based, human. How it is done:
as §1, §2

In test [4] the test system is MCF10A (breast epithelial) cells. Description: MTT cytotoxicity assay. The test is classed as cell-based, human. The settings on record: MCF10A normal cells. How it is done:
as §1, §2

The test system of test [5] is MDA‐MB‐231 (breast cancer) cells. Description: MTT cytotoxicity assay. The format is cell-based, human. How it is done:
as §1, §2

In a further test the test system is HeLa cells. Also on record: method as in Liu et al., 2008. The conditions noted are these: 25 μg/mL for 72 h, ref Liu et al., 2008; cited from earlier work.

For `N.N.[Cl][Pt][Cl]` [cisplatin], the IC50 value in test [1] (24 h incubation) came out at 18.94 µg/mL; in test [1] (48 h incubation), 14.84 µg/mL; in test [1] (72 h incubation), 6.18 µg/mL; in test [3] (72 h incubation), 4.56 µg/mL; in test [5] (MDA‐MB‐231, 72 h incubation) it was 10.92 µg/mL. Further, the “Ave IC50 values” in test [2] (24 h) was 63.42 µg/mL; in test [2] (48 h), 54.14 µg/mL; in test [2] (72 h) it was 16.01 µg/mL; in test [3] (24 h) it was 8.16 µg/mL; in test [3] (48 h) it was 13.92 µg/mL; in test [4] (24 h), 33.56 µg/mL. The “Ave IC50 values” in test [4] (48 h) turned out to be 26.03 µg/mL; in test [4] (72 h) it was 8.32 µg/mL; in test [5] (MDA‐MB‐231, 24 h), 41.28 µg/mL; in test [5] (MDA‐MB‐231, 48 h) it was 27.87 µg/mL. Also, the cell death in the test with HeLa cells is given as ~90%.
